Data: paper PMC12136037, “Type II kinase inhibitors that target Parkinson’s disease–associated LRRK2” (Science Advances, 2025)

Columns and labels:
Test in all cases: DSF 100 kinase selectivity screen;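 further: compound tested at 20 µM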
Assay type in all cases: binding
[1] = target: T1, ~100 representative kinases (Homo sapiens, UniProt P33981); conditions: Protein TTK; DSF; average of three replicates
T1 construct: Recombinant protein kinase domains with a concentration of 2 μM
T1 sequence (P33981 1-857): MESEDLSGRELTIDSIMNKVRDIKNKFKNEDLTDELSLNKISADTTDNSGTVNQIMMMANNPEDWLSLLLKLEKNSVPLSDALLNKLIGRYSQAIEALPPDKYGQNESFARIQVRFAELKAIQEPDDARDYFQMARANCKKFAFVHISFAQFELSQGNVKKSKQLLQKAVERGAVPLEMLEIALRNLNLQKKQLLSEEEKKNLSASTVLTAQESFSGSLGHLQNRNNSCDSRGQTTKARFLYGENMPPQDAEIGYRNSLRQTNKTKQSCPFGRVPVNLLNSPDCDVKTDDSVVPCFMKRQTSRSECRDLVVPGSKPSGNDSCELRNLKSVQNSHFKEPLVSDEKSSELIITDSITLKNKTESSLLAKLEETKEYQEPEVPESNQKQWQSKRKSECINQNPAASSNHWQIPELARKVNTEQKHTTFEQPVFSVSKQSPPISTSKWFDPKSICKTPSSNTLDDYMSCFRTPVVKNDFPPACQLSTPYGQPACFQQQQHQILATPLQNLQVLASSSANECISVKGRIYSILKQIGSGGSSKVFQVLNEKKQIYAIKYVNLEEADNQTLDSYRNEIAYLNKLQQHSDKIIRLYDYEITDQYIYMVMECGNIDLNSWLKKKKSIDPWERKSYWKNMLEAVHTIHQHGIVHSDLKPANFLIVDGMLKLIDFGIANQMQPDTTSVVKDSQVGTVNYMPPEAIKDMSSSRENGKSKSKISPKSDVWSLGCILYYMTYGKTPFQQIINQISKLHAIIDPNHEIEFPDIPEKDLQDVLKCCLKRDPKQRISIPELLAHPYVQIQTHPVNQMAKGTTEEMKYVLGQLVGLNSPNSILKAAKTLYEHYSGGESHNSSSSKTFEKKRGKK
In short: (§1)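 Each kinase domain, at 2 μM, is mixed with 20 μM test compound and SYPRO Orange in Hepes (20 mM, pH 7.5) with 500 mM NaCl. Temperature is then raised at 3°C/min and fluorescence-monitored unfolding yields the melting temperature change, ΔTm in degrees Celsius.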

[2] = target: T2, ~100 representative kinases (Homo sapiens, UniProt P15056); conditions: Protein BRAF; average of three replicates
T2 construct: Recombinant protein kinase domains with a concentration of 2 μM
T2 sequence (P15056 whole entry, the tested form may be a part): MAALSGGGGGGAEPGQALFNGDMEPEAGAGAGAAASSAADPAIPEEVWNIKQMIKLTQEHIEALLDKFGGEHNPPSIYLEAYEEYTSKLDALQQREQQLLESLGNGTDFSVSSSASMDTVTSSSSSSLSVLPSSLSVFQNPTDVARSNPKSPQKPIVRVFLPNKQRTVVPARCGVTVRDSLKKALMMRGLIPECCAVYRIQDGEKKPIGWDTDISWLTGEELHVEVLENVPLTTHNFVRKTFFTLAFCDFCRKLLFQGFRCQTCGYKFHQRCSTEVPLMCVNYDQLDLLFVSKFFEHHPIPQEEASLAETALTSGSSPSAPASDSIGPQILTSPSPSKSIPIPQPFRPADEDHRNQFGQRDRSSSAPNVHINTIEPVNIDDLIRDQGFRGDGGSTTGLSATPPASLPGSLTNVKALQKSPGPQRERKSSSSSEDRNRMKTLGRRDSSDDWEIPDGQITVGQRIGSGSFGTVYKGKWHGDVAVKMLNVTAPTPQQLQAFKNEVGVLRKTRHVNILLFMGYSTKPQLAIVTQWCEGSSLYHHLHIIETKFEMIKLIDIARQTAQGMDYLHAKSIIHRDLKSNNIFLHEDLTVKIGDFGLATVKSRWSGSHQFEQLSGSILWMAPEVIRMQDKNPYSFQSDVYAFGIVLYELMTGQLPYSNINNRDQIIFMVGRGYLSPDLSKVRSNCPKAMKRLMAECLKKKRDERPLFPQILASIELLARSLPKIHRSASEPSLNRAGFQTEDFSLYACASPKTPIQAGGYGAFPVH
In short: as §1

[3] = target: T3, ~100 representative kinases (Homo sapiens, UniProt P16083); conditions: protein NQO2; average of three replicates
T3 construct: Recombinant protein kinase domains with a concentration of 2 μM
T3 sequence (P16083 1-231): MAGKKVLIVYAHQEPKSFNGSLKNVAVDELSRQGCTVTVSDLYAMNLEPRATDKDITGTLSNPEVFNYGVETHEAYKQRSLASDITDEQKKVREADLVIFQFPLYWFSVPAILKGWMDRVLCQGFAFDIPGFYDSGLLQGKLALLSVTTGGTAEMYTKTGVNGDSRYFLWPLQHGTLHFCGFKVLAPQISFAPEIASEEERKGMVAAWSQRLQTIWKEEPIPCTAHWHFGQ
In short: as §1

[4] = target: T4, ~100 representative kinases (Homo sapiens, UniProt Q96NX5); conditions: Protein CAMK1G; average of three replicates
T4 construct: Recombinant protein kinase domains with a concentration of 2 μM
T4 sequence (Q96NX5 whole entry, the tested form may be a part): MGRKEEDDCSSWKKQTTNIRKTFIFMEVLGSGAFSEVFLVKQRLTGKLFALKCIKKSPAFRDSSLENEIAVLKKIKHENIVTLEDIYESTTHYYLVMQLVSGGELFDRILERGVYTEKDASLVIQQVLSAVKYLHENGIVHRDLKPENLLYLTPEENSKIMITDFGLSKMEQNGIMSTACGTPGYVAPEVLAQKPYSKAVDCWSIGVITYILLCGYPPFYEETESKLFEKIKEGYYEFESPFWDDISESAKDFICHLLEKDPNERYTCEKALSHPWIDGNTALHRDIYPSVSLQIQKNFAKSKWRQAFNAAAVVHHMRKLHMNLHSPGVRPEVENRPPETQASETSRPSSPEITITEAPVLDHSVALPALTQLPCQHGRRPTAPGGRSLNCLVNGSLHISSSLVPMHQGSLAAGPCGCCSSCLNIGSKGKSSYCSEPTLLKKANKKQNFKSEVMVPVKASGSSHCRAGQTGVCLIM
In short: as §1

[5] = target: T5, ~100 representative kinases (Homo sapiens, UniProt O15264); conditions: protein MAPK13; average of three replicates
T5 construct: Recombinant protein kinase domains with a concentration of 2 μM
T5 sequence (O15264 1-365): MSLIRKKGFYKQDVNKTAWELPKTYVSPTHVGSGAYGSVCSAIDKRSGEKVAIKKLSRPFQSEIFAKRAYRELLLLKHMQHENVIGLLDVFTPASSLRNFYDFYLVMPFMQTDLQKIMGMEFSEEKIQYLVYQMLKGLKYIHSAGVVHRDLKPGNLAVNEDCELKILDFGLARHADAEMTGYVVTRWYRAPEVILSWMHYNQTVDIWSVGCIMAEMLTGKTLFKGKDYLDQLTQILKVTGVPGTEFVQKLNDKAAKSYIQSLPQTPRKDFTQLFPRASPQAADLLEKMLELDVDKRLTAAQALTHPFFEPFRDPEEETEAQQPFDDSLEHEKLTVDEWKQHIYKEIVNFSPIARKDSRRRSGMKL
In short: as §1

[6] = target: T6, ~100 representative kinases (Homo sapiens, UniProt Q9UPE1); conditions: Protein SRPK3; DSF; average of three replicates
T6 construct: Recombinant protein kinase domains with a concentration of 2 μM
T6 sequence (Q9UPE1 whole entry, the tested form may be a part): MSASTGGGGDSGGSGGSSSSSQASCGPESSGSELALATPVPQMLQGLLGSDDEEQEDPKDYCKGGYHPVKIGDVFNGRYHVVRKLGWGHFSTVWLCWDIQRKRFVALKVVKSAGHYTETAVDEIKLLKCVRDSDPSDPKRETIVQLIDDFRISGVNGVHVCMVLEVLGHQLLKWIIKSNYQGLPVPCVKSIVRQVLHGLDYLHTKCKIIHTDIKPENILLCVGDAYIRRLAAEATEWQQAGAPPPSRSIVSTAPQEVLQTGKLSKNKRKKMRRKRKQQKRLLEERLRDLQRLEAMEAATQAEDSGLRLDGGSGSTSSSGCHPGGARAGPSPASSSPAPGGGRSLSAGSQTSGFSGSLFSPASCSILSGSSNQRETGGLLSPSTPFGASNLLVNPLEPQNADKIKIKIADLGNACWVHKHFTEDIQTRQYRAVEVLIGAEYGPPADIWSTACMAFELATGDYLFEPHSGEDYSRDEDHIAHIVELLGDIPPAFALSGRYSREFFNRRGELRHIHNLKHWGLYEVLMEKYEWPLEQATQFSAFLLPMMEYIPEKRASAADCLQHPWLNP
In short: as §1

[7] = target: T7, ~100 representative kinases (Homo sapiens, UniProt Q00536); conditions: protein PCTK1; average of three replicates
T7 construct: Recombinant protein kinase domains with a concentration of 2 μM
T7 sequence (Q00536 whole entry, the tested form may be a part): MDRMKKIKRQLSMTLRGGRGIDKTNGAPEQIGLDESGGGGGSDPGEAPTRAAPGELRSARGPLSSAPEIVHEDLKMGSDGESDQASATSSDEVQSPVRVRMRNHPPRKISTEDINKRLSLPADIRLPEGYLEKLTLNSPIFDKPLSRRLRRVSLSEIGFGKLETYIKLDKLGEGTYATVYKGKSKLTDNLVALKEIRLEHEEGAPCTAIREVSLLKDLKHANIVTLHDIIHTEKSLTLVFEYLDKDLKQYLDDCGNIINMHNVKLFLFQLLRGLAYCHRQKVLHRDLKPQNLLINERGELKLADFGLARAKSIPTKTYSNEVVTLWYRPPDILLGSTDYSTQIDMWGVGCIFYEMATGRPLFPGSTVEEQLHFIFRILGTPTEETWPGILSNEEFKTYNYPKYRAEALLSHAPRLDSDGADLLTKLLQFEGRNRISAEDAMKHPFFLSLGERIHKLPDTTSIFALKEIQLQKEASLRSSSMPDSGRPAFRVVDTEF
In short: as §1

[8] = target: T8, ~100 representative kinases (Homo sapiens, UniProt Q9UEW8); conditions: Protein STK39; DSF; average of three replicates
T8 construct: Recombinant protein kinase domains with a concentration of 2 μM
In short: as §1

[9] = target: T9, ~100 representative kinases (Homo sapiens, UniProt P45985); conditions: protein MAP2K4; average of three replicates
T9 construct: Recombinant protein kinase domains with a concentration of 2 μM
T9 sequence (P45985 1-399): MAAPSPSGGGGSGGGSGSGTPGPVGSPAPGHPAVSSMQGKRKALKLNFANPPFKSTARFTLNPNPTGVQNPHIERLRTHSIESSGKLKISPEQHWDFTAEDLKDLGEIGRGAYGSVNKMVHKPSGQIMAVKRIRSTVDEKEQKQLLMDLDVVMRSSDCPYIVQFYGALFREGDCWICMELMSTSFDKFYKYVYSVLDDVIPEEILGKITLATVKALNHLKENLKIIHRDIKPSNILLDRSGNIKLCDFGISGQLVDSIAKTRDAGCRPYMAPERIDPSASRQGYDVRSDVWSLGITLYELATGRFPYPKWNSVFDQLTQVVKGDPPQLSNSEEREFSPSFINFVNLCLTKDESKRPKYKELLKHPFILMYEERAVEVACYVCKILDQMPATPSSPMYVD
In short: as §1

[10] = target: T10, ~100 representative kinases (Homo sapiens, UniProt Q13627); conditions: Protein DYRK1A; average of three replicates
T10 construct: Recombinant protein kinase domains with a concentration of 2 μM
In short: as §1

## COc1ccc(NC(=O)C2(C(=O)Nc3cccc(-c4c[nH]c5ncnc(N6CCOCC6)c45)c3)CC2)cc1 [Compound 16]
[1]
  dTm: 3.48 K
[2]
  dTm: 4.18 K
[3]
  dTm: -0.51 K
[4]
  dTm: -0.76 K
[5]
  dTm: 5.41 K
[6]
  dTm: 2.74 K
[7]
  dTm: 5.58 K
[8]
  dTm: -0.15 K
[9]
  dTm: 3.98 K
[10]
  dTm: 0.49 K

## O=C(Nc1cccc(-c2c[nH]c3ncnc(N4CCOCC4)c23)c1)C1(C(=O)Nc2ccc(F)c(F)c2)CC1 [Compound 17]
[1]
  dTm: 6.18 K
[2]
  dTm: 7.80 K
[3]
  dTm: -0.41 K
[4]
  dTm: 2.10 K
[5]
  dTm: 9.50 K
[6]
  dTm: 5.74 K
[7]
  dTm: 5.61 K
[8]
  dTm: 1.80 K
[9]
  dTm: 5.80 K
[10]
  dTm: 4.77 K

## O=C(Nc1cccc(-c2c[nH]c3ncnc(N4CCOCC4)c23)c1)C1(C(=O)Nc2ccc(F)c(Cl)c2)CC1 [Compound 18]
[1]
  dTm: 8.02 K
[2]
  dTm: 10.73 K
[3]
  dTm: 0.34 K
[4]
  dTm: 3.39 K
[5]
  dTm: 12.04 K
[6]
  dTm: 7.93 K
[7]
  dTm: 7.39 K
[8]
  dTm: 2.24 K
[9]
  dTm: 6.47 K
[10]
  dTm: 6.34 K

## O=C(Nc1cccc(-c2c[nH]c3ncnc(N4CCOCC4)c23)c1)C1(C(=O)Nc2ccc(F)c(Br)c2)CC1 [Compound 19]
[1]
  dTm: 9.93 K
[2]
  dTm: 13.24 K
[3]
  dTm: -0.18 K
[4]
  dTm: 5.35 K
[5]
  dTm: 11.96 K
[6]
  dTm: 6.39 K
[7]
  dTm: 4.12 K
[8]
  dTm: 1.45 K
[9]
  dTm: 6.16 K
[10]
  dTm: 1.71 K

## Cc1cc(NC(=O)C2(C(=O)Nc3cccc(-c4c[nH]c5ncnc(N6CCOCC6)c45)c3)CC2)ccc1F [Compound 20]
[1]
  dTm: 8.62 K
[2]
  dTm: 13.62 K
[3]
  dTm: -1.06 K
[4]
  dTm: 2.80 K
[5]
  dTm: 13.05 K
[6]
  dTm: 10.86 K
[7]
  dTm: 8.82 K
[8]
  dTm: 3.28 K
[9]
  dTm: 7.49 K
[10]
  dTm: 7.39 K

## COc1cc(NC(=O)C2(C(=O)Nc3cccc(-c4c[nH]c5ncnc(N6CCOCC6)c45)c3)CC2)ccc1F [Compound 21]
[1]
  dTm: 7.84 K
[2]
  dTm: 10.93 K
[3]
  dTm: -1.04 K
[4]
  dTm: 1.23 K
[5]
  dTm: 11.57 K
[6]
  dTm: 6.98 K
[7]
  dTm: 6.37 K
[8]
  dTm: 1.92 K
[9]
  dTm: 6.42 K
[10]
  dTm: 2.83 K

## CC(C)(C)c1cccc(NC(=O)C2(C(=O)Nc3cccc(-c4c[nH]c5ncnc(N6CCOCC6)c45)c3)CC2)c1 [Compound 22]
[1]
  dTm: 5.44 K
[2]
  dTm: 15.10 K
[3]
  dTm: -1.08 K
[4]
  dTm: 4.22 K
[5]
  dTm: 6.63 K
[6]
  dTm: 4.39 K
[7]
  dTm: 4.90 K
[8]
  dTm: 3.92 K
[9]
  dTm: 5.69 K
[10]
  dTm: 0.19 K

## O=C(Nc1cccc(-c2c[nH]c3ncnc(N4CCOCC4)c23)c1)C1(C(=O)Nc2ccc(F)cc2F)CC1 [Compound 23]
[1]
  dTm: -5.86 K
[2]
  dTm: 9.00 K
[3]
  dTm: -1.88 K
[4]
  dTm: 1.64 K
[5]
  dTm: 7.48 K
[6]
  dTm: 4.09 K
[7]
  dTm: 4.13 K
[8]
  dTm: 1.14 K
[9]
  dTm: 5.20 K
[10]
  dTm: 1.28 K

## Cc1cc(F)ccc1NC(=O)C1(C(=O)Nc2cccc(-c3c[nH]c4ncnc(N5CCOCC5)c34)c2)CC1 [Compound 24]
[1]
  dTm: 2.46 K
[2]
  dTm: 8.44 K
[3]
  dTm: -2.19 K
[4]
  dTm: 0.49 K
[5]
  dTm: 6.95 K
[6]
  dTm: 1.90 K
[7]
  dTm: 3.77 K
[8]
  dTm: 0.71 K
[9]
  dTm: 5.80 K
[10]
  dTm: 0.41 K
